Results published in patent publication US5391540A, “Substituted pyridine compounds” (Rohm and Haas Company, priority 1993, dated 1995).

Key:
Assay in all cases: Pre-emergent herbicidal activity (Table A)
Type in all cases: in vivo
[1] = test system: Indian Mustard; details: Brassica juncea, pre-emergence, Inmu, 11.2 kg/ha, 10-14 days, read-out: herbicidal rating (% inhibition)
Description: (§1) Tables A and B summarize results of tests conducted to determine the pre-emergent herbicidal activity of the compounds of this invention. The herbicidal ratings used in Tables A and B were assigned according to a scale based on the percent inhibition of each plant species. The herbicide rating symbols in Tables A and B are defined as follows: […]
(§2) One set of pre-emergent tests was conducted as follows:
(§3) Topsoil was placed in a pan and compacted to a depth of 0.95 to 1.27 cm. from the top of the pan. A predetermined number of seeds of each of several monocotyledonous and dicotyledonous annual plant species and/or vegetative propagules of various perennial plant species were placed on top of the soil. The soil required to level fill a pan after seeding or adding vegetative propagules was weighed into another pan. A known amount of the test compound dissolved or suspended in an organic solvent or water and applied in acetone or water as a carrier was thoroughly mixed with this cover soil, and the herbicide/soil mixture was used as a cover layer for the previously prepared pan. In Table A below the amounts of active ingredient were all equivalent to an application rate of 11.2 kilograms/hectare (kg/ha). After treatment, the pans were moved to a greenhouse bench where they were watered as needed to give adequate moisture for germination and growth.
(§4) Approximately 10-14 days (usually 11 days) after planting and treating, the plants were observed and the results recorded.
(§5) The plant species usually regarded as weeds which were utilized in one set of pre-emergent activity tests, the data for which are shown in Table A, are identified by letter headings printed diagonally above the columns according to the following legend: […]

[2] = test system: Seedling Johnsongrass; details: Sorghum halepense, pre-emergence, Sejg, 11.2 kg/ha, 10-14 days, read-out: herbicidal rating (% inhibition)
Description: as §1, §2, §3, §4, §5

[3] = test system: Annual Bluegrass; details: pre-emergence, Anbg, 11.2 kg/ha, 10-14 days, read-out: herbicidal rating (% inhibition)
Description: as §1, §2, §3, §4, §5

[4] = test system: Wild Buckwheat; details: Fallopia convolvulus, pre-emergence, Wibw, 11.2 kg/ha, 10-14 days, read-out: herbicidal rating (% inhibition)
Description: as §1, §2, §3, §4, §5

[5] = test system: Barnyardgrass; details: Echinochloa crus-galli, pre-emergence, Bygr, 11.2 kg/ha, 10-14 days, read-out: herbicidal rating (% inhibition)
In short: (§6)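 Seeds or vegetative propagules were set on topsoil compacted to 0.95 to 1.27 cm below the pan rim, then covered with soil thoroughly mixed with a known amount of test compound in acetone or water carrier. Ratings follow a scale of percent inhibition per species.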

[6] = test system: Cocklebur; details: Xanthium strumarium, pre-emergence, Cobu, 11.2 kg/ha, 10-14 days, read-out: herbicidal rating (% inhibition)
In short: as §6

[7] = test system: Downy Brome; details: Bromus tectorum, pre-emergence, Dobr, 11.2 kg/ha, 10-14 days, read-out: herbicidal rating (% inhibition)
In short: as §6

[8] = test system: Velvetleaf; details: Abutilon theophrasti, pre-emergence, Vele, 11.2 kg/ha, 10-14 days, read-out: herbicidal rating (% inhibition)
In short: as §6

[9] = test system: Yellow Nutsedge; details: Cyperus, pre-emergence, Yens, 11.2 kg/ha, 10-14 days, read-out: herbicidal rating (% inhibition)
In short: as §6

[10] = test system: Morningglory; details: Ipomoea, pre-emergence, Mogl, 11.2 kg/ha, 10-14 days, read-out: herbicidal rating (% inhibition)
In short: as §6

Row | Compound | inhibition at 11200 g/ha [1] [%] | inhibition at 11200 g/ha [2] [%] | inhibition at 11200 g/ha [3] [%] | inhibition at 11200 g/ha [4] [%] | inhibition at 11200 g/ha [5] [%] | inhibition at 11200 g/ha [6] [%] | inhibition at 11200 g/ha [7] [%] | inhibition at 11200 g/ha [8] [%] | inhibition at 11200 g/ha [9] [%] | inhibition at 11200 g/ha [10] [%]
1 | COC(=O)c1c(OC)nc(C(F)(F)F)c(C(=O)NNC(C)=O)c1CC(C)C [Compound 100, 3,5-pyridinedicarboxylic acid, 2-methoxy-4-(2-methylpropyl)-6-(trifluoromethyl)-, 3-methyl ester 5-(2-acetylhydrazide)] | 0 to 24 | 0 to 24 | 75 to 100 | 0 to 24 | 0 to 24 | 0 to 24 | 0 to 24 | 0 to 24 | 0 to 24 | 0 to 24
2 | COC(=O)c1c(OC)nc(C(F)(F)F)c(C(=O)N2CCCO2)c1CC(C)C [Compound 132, 3-pyridinecarboxylic acid, 5-(2-isoxazolidinecarbonyl)-2-methoxy-4-(2-methylpropyl)-6-(trifluoromethyl)-, methyl ester] | 75 to 100 | 75 to 100 | 75 to 100 | 75 to 100 | 75 to 100 | 0 to 24 | 75 to 100 | 75 to 100 | 0 to 24 | 50 to 74
3 | COC(=O)c1c(OC)nc(C(F)(F)F)c(C(=O)n2cc([N+](=O)[O-])cn2)c1CC(C)C [Compound 101, 3-pyridinecarboxylic acid, 2-methoxy-4-(2-methylpropyl)-5-[(4-nitro-1H-pyrazo1-1-yl)carbonyl]-6-(trifluoromethyl)-, methyl ester] | 75 to 100 | 75 to 100 | 75 to 100 | 75 to 100 | 75 to 100 | 25 to 49 | 50 to 74 | 50 to 74 | 0 to 24 | 50 to 74
4 | COC(=O)c1c(OC)nc(C(F)(F)F)c(C2OCC(=O)O2)c1CC(C)C (stereo not shown) [Compound 123, 3-pyridinecarboxylic acid, 2-methoxy-4-(2-methylpropyl)-5-(4-oxo-1,3-dioxolan-2-yl)-6-(trifluoromethyl)-, methyl ester] | 75 to 100 | 75 to 100 | 75 to 100 | 75 to 100 | 75 to 100 | 0 to 24 | 75 to 100 | 25 to 49 | 0 to 24 | 25 to 49
5 | COC(=O)c1c(OC)nc(C(F)(F)F)c(C(N)=O)c1CC(C)C [Compound 105, 3-pyridinecarboxylic acid, 5-(aminocarbonyl)-2-methoxy-4-(2-methylpropyl)-6-(trifluoromethyl)-, methyl ester] | 0 to 24 | 75 to 100 | 75 to 100 | 25 to 49 | 75 to 100 | 0 to 24 | 0 to 24 | 0 to 24 | 0 to 24 | 0 to 24
6 | COC(=O)c1c(OC)nc(C(F)(F)F)c(C2OCCO2)c1CC1CC1 [Compound 118, 3-pyridinecarboxylic acid, 4-(cyclopropylmethyl)-5-(1,3-dioxolan-2-yl)-2-methoxy-6-(trifluoromethyl)-, methyl ester] | 75 to 100 | 75 to 100 | 75 to 100 | 75 to 100 | 75 to 100 | 0 to 24 | 75 to 100 | 75 to 100 | 75 to 100 | 75 to 100
7 | COC(=O)c1c(OC)nc(C(F)(F)F)c(C(=O)n2cc(Cl)cn2)c1CC(C)C [Compound 104] | 75 to 100 | 75 to 100 | 75 to 100 | 50 to 74 | 75 to 100 | 0 to 24 | 50 to 74 | 50 to 74 | 0 to 24 | 50 to 74
8 | COc1nc(C(F)(F)F)c(C=O)c(CC(C)C)c1C(=O)SC [Compound 135, 3-pyridinecarbothioic acid, 5-formy1-2-methoxy-4-(2-methylpropyl)-6-(trifluoromethyl)-, S-methyl ester] | 75 to 100 | 50 to 74 | 75 to 100 | 25 to 49 | 75 to 100 | 0 to 24 | 75 to 100 | 50 to 74 | 0 to 24 | 0 to 24
9 | CCOC=NNC(=O)c1c(C(F)(F)F)nc(OC)c(C(=O)OC)c1CC(C)C [Compound 124, 3,5-pyridinedicarboxylic acid, 2-methoxy-4-(2-methylpropyl)-6-(trifluoromethyl)-, 3-methyl ester, 5-(ethoxymethylene)hydrazide] | 0 to 24 | 0 to 24 | 0 to 24 | 0 to 24 | 0 to 24 | 0 to 24 | 0 to 24 | 0 to 24 | 0 to 24 | 0 to 24
10 | COC(=O)c1c(OC)nc(C(F)(F)F)c(C(=O)n2ccc(F)n2)c1CC(C)C [Compound 102, 3-pyridinecarboxylic acid, 5-[(3-fluoro-1H-pyrazo1-1-yl)carbonyl]-2-methoxy-4-(2-methylpropyl)-6-(trifluoromethyl)-, methyl ester] | 75 to 100 | 75 to 100 | 75 to 100 | 75 to 100 | 75 to 100 | 75 to 100 | 75 to 100 | 75 to 100 | 75 to 100 | 75 to 100
11 | COC(=O)c1c(OC)nc(C(F)(F)F)c(C=O)c1CC1CC1 [Compound 115, 3-pyridinecarboxylic acid, 4-(cyclopropylmethyl)-5-formy1-2-methoxy-6-(trifluoromethyl)-, methyl ester] | 75 to 100 | 75 to 100 | 75 to 100 | 50 to 74 | 75 to 100 | 0 to 24 | 75 to 100 | 50 to 74 | 25 to 49 | 50 to 74
12 | COC(=O)c1c(OC)nc(C(F)(F)F)c(C(Cl)=NCCCl)c1CC(C)C [Compound 95, 3-pyridinecarboxylic acid, 5-[(chloro[2-chloroethyl)imino)methyl]-2-methoxy-4-(2-methylpropyl)-6-(trifluoromethyl)-, methyl ester] | 50 to 74 | 75 to 100 | 75 to 100 | 75 to 100 | 75 to 100 | 0 to 24 | 25 to 49 | 50 to 74 | 0 to 24 | 0 to 24
13 | COC(=O)c1c(OC)nc(C(F)(F)F)c(-c2nccs2)c1CC(C)C [Compound 129, 3-pyridinecarboxylic acid, 2-methoxy-4-(2-methylpropyl)-5-(2-thiazolyl)-6-(trifluoromethyl)-, methyl ester] | 75 to 100 | 75 to 100 | 75 to 100 | 75 to 100 | 75 to 100 | 50 to 74 | 75 to 100 | 75 to 100 | 75 to 100 | 75 to 100
